Test results published in patent US20250163056A1, “NONMUSCLE MYOSIN II INHIBITORS” (The University of Florida Research Foundation, Inc., priority 2018, published 2025).

Tests used:
Bovine cardiac myosin = Bovine cardiac myosin (Bos taurus (Bovine), UniProt Q9BE39); experiment: Cardiac muscle myosin II actin-activated ATPase assay (NADH-coupled); format: biochemical; design: key to Ratio CMMII:NMII Ki/EC50: NMII-sel: no Ki value for cardiac myosin II could be determined; the compounds had no detectable inhibitory properties versus the cardiac myosin II; settings: for Ki: 300 nM cardiac myosin, 10 μM actin, 25° C., read-out: CMMII KI; for Ratio CMMII:NMII Ki/EC50: cardiac myosin II Ki over nonmuscle myosin II EC50
Outline: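 NADH-coupled (PK/LDH) assay at 25° C: 300 nM bovine cardiac myosin, 10 μM rabbit F-actin, 1 mM ATP, 1 mM PEP, 220 μM NADH, MOPS pH 7.0, 0.5% DMSO. NADH fluorescence was followed for 30 min; Ki values came from 16-point triplicate data (top 50 uM) fitted to a quadratic one-to-one binding model.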

Rabbit skeletal myosin = experiment: Skeletal muscle myosin II actin-activated ATPase assay; format: biochemical; settings: 20 nM skeletal muscle myosin II; read-out: SKMMII KI
Outline: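 NADH-coupled (PK/LDH) actin-activated ATPase at 25 °C with 20 nM rabbit skeletal myosin II, 10 μM F-actin, 1 mM ATP, 1 mM PEP, 220 μM NADH in MOPS pH 7.0, MgCl2, EGTA, BSA, DTT, 0.5% DMSO. NADH fluorescence followed 30 min; inhibitory constants from 16-point triplicate curves (top 50 uM), quadratic one-to-one fit.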

[1] = Photostability, percentage remaining undegraded under illumination or in the dark; settings: for Photostability 4 hours: percentage remaining undegraded after 4 hours illumination; for Photostability 24 hours: percentage remaining undegraded after 24 hours illumination; for Photostability Dark (24 h): percentage remaining undegraded in the dark

Chain of Bovine cardiac myosin (Q9BE39 whole entry): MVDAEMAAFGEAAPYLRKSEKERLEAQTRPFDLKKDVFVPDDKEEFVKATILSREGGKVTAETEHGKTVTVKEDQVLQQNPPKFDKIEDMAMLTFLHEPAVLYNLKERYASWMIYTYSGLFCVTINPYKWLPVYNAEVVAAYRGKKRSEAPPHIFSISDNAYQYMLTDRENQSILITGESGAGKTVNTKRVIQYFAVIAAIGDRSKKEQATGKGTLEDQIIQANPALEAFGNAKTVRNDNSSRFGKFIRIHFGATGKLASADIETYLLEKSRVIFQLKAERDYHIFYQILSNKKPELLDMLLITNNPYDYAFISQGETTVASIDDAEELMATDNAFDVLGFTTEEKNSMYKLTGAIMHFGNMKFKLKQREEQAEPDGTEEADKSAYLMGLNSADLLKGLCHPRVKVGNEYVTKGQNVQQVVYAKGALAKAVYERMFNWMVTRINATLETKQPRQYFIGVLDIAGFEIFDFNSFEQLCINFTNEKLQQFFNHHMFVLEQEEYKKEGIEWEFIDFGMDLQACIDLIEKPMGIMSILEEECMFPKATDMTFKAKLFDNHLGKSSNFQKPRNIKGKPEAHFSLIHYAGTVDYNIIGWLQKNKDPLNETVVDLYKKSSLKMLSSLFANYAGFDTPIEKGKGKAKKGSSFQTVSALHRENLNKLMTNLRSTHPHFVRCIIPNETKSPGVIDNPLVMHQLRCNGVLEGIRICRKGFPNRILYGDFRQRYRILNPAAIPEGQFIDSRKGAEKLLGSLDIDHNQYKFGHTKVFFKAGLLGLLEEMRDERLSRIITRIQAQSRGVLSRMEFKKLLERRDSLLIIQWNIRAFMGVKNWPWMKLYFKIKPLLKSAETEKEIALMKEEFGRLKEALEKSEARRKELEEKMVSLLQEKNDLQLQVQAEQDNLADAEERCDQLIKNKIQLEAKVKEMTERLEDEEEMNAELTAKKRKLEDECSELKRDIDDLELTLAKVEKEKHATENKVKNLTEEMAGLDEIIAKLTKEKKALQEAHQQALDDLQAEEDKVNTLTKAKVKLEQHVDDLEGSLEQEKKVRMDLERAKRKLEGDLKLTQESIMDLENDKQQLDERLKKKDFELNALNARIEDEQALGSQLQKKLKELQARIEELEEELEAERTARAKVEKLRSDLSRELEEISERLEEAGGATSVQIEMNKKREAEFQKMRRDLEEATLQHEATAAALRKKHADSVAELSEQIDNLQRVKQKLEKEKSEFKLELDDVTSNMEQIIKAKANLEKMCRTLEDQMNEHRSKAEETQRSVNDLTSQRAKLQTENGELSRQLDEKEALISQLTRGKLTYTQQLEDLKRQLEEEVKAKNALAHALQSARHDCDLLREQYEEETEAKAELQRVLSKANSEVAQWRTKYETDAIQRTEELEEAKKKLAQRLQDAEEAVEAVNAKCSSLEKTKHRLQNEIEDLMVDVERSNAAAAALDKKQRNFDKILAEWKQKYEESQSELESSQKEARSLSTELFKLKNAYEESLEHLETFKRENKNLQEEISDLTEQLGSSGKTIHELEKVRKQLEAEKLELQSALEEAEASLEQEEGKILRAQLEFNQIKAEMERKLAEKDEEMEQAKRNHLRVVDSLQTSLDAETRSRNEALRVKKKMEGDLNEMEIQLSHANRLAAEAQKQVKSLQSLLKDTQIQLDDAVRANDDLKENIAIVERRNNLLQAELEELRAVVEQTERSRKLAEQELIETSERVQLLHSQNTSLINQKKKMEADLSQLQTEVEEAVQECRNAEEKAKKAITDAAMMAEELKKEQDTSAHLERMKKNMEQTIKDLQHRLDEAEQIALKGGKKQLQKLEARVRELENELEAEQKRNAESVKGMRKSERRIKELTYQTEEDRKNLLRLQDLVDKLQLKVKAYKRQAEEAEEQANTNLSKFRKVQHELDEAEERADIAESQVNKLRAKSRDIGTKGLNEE
Chain of Bovine cardiac myosin (P85100 whole entry partner): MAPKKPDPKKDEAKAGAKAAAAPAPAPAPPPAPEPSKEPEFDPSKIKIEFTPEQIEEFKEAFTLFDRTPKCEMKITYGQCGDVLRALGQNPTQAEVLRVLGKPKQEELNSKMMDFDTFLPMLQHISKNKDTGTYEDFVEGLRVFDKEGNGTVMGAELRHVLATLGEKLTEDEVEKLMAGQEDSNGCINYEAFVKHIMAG
Chain of Bovine cardiac myosin (Q3SZE5 whole entry partner): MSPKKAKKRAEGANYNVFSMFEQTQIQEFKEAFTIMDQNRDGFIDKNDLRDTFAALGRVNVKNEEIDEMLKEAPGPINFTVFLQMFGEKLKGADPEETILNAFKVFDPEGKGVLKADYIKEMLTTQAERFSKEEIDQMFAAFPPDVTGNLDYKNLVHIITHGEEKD

SMILES | Ki (Bovine cardiac myosin) | Ratio CMMII:NMII Ki/EC50 (Bovine cardiac myosin) | Ki (Rabbit skeletal myosin) | Photostability 4 hours [1] | Photostability 24 hours [1] | Photostability Dark (24 h) [1]
Cc1cc2c(cc1C)C(=O)[C@]1(O)CCN(c3ccc4oc(CO)cc4c3)C1=N2 [BPN-0028555] | 4.6 µM | 6.1 | 1.5 µM | 4.7% | <1% | 93.6%
Cn1cc(N2CC[C@@]3(O)C(=O)c4cc(C(F)(F)F)ccc4N=C23)cn1 [BPN-0026413] | 110 µM | 3.1 | 33 µM | 94.3% | 82.2% | 97.3%
Cc1cc2c(cc1C)C(=O)[C@]1(O)CCN(c3ccc4nc(N)ccc4c3)C1=N2 [BPN-0028899] |  | NMII-sel | 3.8 µM | 70.8% | 29.7% | 97.8%
Cc1cc2c(cc1C)C(=O)[C@]1(O)CCN(c3ccc4nc(C#N)ccc4c3)C1=N2 [BPN-0027492] |  | NMII-sel | 2.6 µM | 95.1% | 66.9% | >99%
COc1ccc(N2CC[C@@]3(O)C(=O)c4cc(C)c(C(F)(F)F)cc4N=C23)cc1 [BPN-0026849] | 16 µM | 16.0 | 0.77 µM | 98.5% | 91.8% | >99%
Cc1ccc2c(c1)C(=O)[C@]1(O)CCN(c3ccc4ncc(C)cc4c3)C1=N2 [BPN-0027160] | 30 µM | 10.3 | 0.2 µM | 95.5% | 73.0% | >99%
CCc1cc2c(s1)N=C1N(c3ccc4ccoc4c3)CC[C@@]1(O)C2=O [BPN-0026749] |  | NMII-sel | 23 µM | 87.8% | <5% | >99%
Cc1cc2cc(N3CC[C@@]4(O)C(=O)c5cc(C)c(C)cc5N=C34)ccc2cn1 [BPN-0027161] | 24 µM | 21.8 | 0.24 µM | 78.6% | 60.2% | 98.3%
O=C1c2cc(C(F)(F)F)ccc2N=C2N(c3ccc4ccoc4c3)CC[C@@]12O [BPN-0026495] |  | NMII-sel | 20 µM | 80.9% | 15.9% | 93.4%
Cc1cc2c(s1)C(=O)[C@]1(O)CCN(c3ccc(C#N)c(C)c3)C1=N2 [BPN-0027072] | 31 µM | 3.1 | 5 µM | >99% | >99% | >99%
Cc1ccc(N2CC[C@@]3(O)C(=O)c4cc(C)c(C)cc4N=C23)cc1 [BPN-0026663] | 2.8 µM | 3.5 | 0.12 µM | 40.7% | 2.0% | 97.3%
COc1ccc2cc(N3CC[C@@]4(O)C(=O)c5cc(C)ccc5N=C34)ccc2n1 [BPN-0027255] |  | NMII-sel | 0.8 µM | 82.4% | 42.2% | 98.3%
Cc1cc(C)c2c(c1)N=C1N(c3ccc4ncccc4c3)CC[C@@]1(O)C2=O [BPN-0028697] | 60 µM | 7.5 | 1.9 µM | 88.4% | 25.4% | 97.3%
Cc1cc2c(cc1C)C(=O)[C@]1(O)CCN(c3ccc4nc(CN(C)C)ccc4c3)C1=N2 [BPN-0028897] | 300 µM | 33.3 | 110 µM | 82.8% | 5.4% | 98.4%
Cc1cc2c(cc1C)C(=O)[C@]1(O)CCN(c3ccc4c(c3)OCCN4)C1=N2 [BPN-0028552] | 26 µM | 21.7 | 2.5 µM | 87.7% | 62.2% | 91.8%
O=C1c2cc(Cl)ccc2N=C2N(c3ccc(Cl)cc3)CC[C@@]12O [BPN-0026640] | 8 µM | 4.0 | 0.53 µM | 71.1% | 17.8% | 96.8%
Cc1cc2c(cc1F)C(=O)[C@]1(O)CCN(c3cnn(C)c3)C1=N2 [BPN-0026746] | 17 µM | 3.8 | 3.6 µM | 58.8% | 10.6% | >99%
Cc1nc2cc(N3CC[C@@]4(O)C(=O)c5cc(C)c(C)cc5N=C34)ccc2o1 [BPN-0027118] | 5.5 µM | 4.6 | 0.68 µM | 68.6% | 9.2% | 94.4%
Cc1cc2c(cc1C)C(=O)[C@]1(O)CCN(c3cnc4sccc4c3)C1=N2 [BPN-0027489] | 26 µM | 33.3 | 0.94 µM | 76.1% | 8.5% | >99%
Cc1cc2c(cc1C)C(=O)[C@]1(O)CCN(c3ccc4c(c3)OCCO4)C1=N2 [BPN-0028921] | 8.4 µM | 11.2 | 1 µM | 2.8% | 3.1% | 97.2%
Cc1cc2c(cc1C)C(=O)[C@]1(O)CCN(c3cnc4c(c3)NCCO4)C1=N2 [BPN-0028734] | 15 µM | 5.0 | 2.9 µM | 76% | <1% | 96.3%
COc1cccc(N2CC[C@@]3(O)C(=O)c4cc(C)c(C)cc4N=C23)c1 [BPN-0026497] | 33 µM | 15.7 | 9.8 µM | 82.7% | 6.1% | 97.5%
Cc1cc2c(cc1C)C(=O)[C@]1(O)CCN(c3cccc(Br)c3)C1=N2 [BPN-0026660] |  | NMII-sel | 33 µM | 87.4% | 7.6% | 93.8%
Cc1ccc2c(c1)C(=O)[C@]1(O)CCN(c3cccc(Br)c3)C1=N2 [BPN-0025240] | 400 µM | 39.2 | 35 µM | 93.0% | 28.6% | 94.7%
Cn1ncc2c1N=C1N(c3ccccc3)CC[C@@]1(O)C2=O [BPN-0027159] |  | NMII-sel | 330 µM | 89.9% | 22.5% | >99%
